Assay results as given in patent US20180238886A1, “METHODS FOR TREATING HEMATOLOGICAL CANCER AND THE USE OF BIOMARKERS AS A PREDICTOR FOR RESPONSIVENESS TO TREATMENT COMPOUNDS” (CELGENE CORPORATION, priority 2017, published 2018).

Test system: DLBCL patients
Experiment: Clinical evaluation of gene classifiers in the Compound A cohort (progression free survival, objective response)
Format: in vivo, human
Design: Median Surv BM+ / Median Surv BM−: unit not given here
Details: for Predictive Effects Cox HR: BM+ vs BM-; for Predictive Effects Cox HR / Median Surv BM− / Median Surv BM+: progression free survival, Cmp A-ST (N = 57); for Median Surv BM−: biomarker-negative patients; for Median Surv BM+: biomarker-positive patients; for CR BM+ / CR BM−: number of complete responses; for OR BM+ / OR BM−: number of objective responses
Text: A proof of principle study was designed to translate the biomarker content and model to a clinically viable platform. The study consisted of four major steps: 1) development of a simplified linear model of the primary signal, 2) placing the model in the scale of a clinically viable technology (such as but not limited to, Nanostring nCounter or qRT-PCR), 3) establishing a threshold to replicate the output of the research assay, and 4) evaluating the simplified model and threshold in the Compound A cohort. The final model was applied to the Lenz microarray cohort and the Compound A Non-transformed cohort assayed by Nanostring nCounter. The classification of each sample was then combined with clinical data, and associations with clinical variables such as objective response and progression free survival were calculated. Results are shown as Kaplan-Meier plots in FIGS. 4A-4D. […] FIGS. 4A and 4C show the original 26 gene research classifier, and FIGS. 4B and 4D show the linear model that resulted from this bridging study. […] Importantly, the shapes of the curves for each group are very similar between the original 26 gene classifier and the bridged linear model. Additional results including biomarker prevalence, summary statistics from Cox Proportional Hazards models, objective response, and model details are listed in Table 6.

[1] = CG26 classifier, BM+ (25 patients)
[2] = CG26 classifier, BM− (32 patients)
[3] = M1 classifier, BM+ (22 patients)
[4] = M1 classifier, BM− (35 patients)

Compound: Cc1nc2cccc(N)c2c(=O)n1C1CCC(=O)NC1=O (centres unmarked) [Compound A, 3-(5-amino-2-methyl-4-oxo-4H-quinazolin-3-yl)-piperidine-2,6-dione]
- Predictive Effects Cox HR (CG26 classifier): 0.31
- Median Surv BM− (CG26 classifier): 6.7
- Median Surv BM+ (CG26 classifier): 35.9
- Predictive Effects Cox HR (M1 classifier): 0.32
- Median Surv BM− (M1 classifier): 6.9
- Median Surv BM+ (M1 classifier): 37.9
- CR BM+ [1]: 4
- CR BM− [2]: 2
- CR BM+ [3]: 4
- CR BM− [4]: 2
- OR BM+ [1]: 12
- OR BM− [2]: 5
- OR BM+ [3]: 10
- OR BM− [4]: 7
